Experimental data from US20250099420A1, “SMALL MOLECULE MODULATORS OF GPR139 COMPLEX” (University of Florida Research Foundation, Incorporated, priority 2022, published 2025).
Read-outs that look alike come from different tables or passages of the source.

Experiments:
[1] = biological target: T1, GPR139 (Homo sapiens, UniProt Q6DWJ6); assay: GPR139 Agonist titration / agonist counterscreen assay (calcium detection, HEK-GPR139 cells); type: cell-based; parameters: expressed in transfected cells; host or cells: HEK Aequorin cells, Maxcyte transient transfection; conditions: GPR139 Agonist Activity; for Averaged Max % Response (±St. Dev.): activity relative to known control; for EC50: read-out: EC50
T1 sequence (Q6DWJ6 1-353): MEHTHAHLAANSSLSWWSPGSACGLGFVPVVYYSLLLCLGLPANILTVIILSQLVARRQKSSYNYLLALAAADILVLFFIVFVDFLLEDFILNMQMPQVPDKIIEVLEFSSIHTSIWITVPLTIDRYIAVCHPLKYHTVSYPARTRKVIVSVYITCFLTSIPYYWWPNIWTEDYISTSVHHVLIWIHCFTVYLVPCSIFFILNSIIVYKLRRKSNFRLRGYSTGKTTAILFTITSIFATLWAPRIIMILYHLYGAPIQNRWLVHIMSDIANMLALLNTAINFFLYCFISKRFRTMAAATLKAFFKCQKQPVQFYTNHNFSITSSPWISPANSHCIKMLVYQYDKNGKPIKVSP
Method: GPR activity was assessed using a calcium detection assay. […] Negative control samples were treated with DMSO. […] Intracellular calcium was measured using Calcium 5.

[2] = tested on: parental HEK cells; assay: HEK parental Agonist Counterscreen Assay (non-transfected cells); type: cell-based; conditions: for Averaged Max % Response (±St. Dev.): activity relative to known control
Excerpt: The high control for the agonist counterscreen was Forskolin not acetylcholine.

[3] = Homo sapiens, HEK293, HEK Agonist Activity section of Table 4 (parental HEK counterscreen)
[4] = values printed in E-notation without unit

| Averaged Max % Response (±St. Dev.) [1] [%] | Lipophilic Efficiency (logD) ([1]; based on logD) | Lipophilic Efficiency (logP) ([1]; based on logP) | Hill Slope ([1]; fitted dose-response curve) | Efficiency Ligand ([1]; ligand efficiency) | Lipophilic Efficiency (logD) ([2]; HEK Agonist Activity section) | Lipophilic Efficiency (logP) ([2]; HEK Agonist Activity section) | Efficiency Ligand [1] | Hill Slope [1] | Lipophilic Efficiency (logD) [1] | Lipophilic Efficiency (logP) [1] | EC50 ([1]; HEK-GPR139 cells) [µM] | EC50 [1, 4] [µM] | Lipophilic Efficiency (logD) ([2]; HEK Agonist Activity) | Lipophilic Efficiency (logP) ([2]; HEK Agonist Activity) | SMILES | Averaged Max % Response (±St. Dev.) ([2]; HEK Agonist Activity section) [%] | EC50 [2, 3] [µM] | Averaged Max % Response (±St. Dev.) ([2]; HEK Agonist Activity) [%] | EC50 ([2]; Homo sapiens, HEK293, HEK Agonist Activity, parental non-transfected HEK cells) [µM] | EC50 ([2]; HEK Agonist Activity section of Table 4 (parental HEK counterscreen)) [µM] |
| --- | --- | --- | --- | --- | --- | --- | --- | --- | --- | --- | --- | --- | --- | --- | --- | --- | --- | --- | --- | --- |
| 95.23 ± 13.49 | 3.95 | 3.94 | 1.23 | 0.32 | 1.70 | 1.69 | – | – | – | – | – | – | – | – | CCCc1ccccc1C1=CCC(NC(=O)Cn2ncc3c2-c2ccccc2CC3)=C1 [SR-01000135037] | −6.83 ± 12.52 | > 14.1 | – | – | – |
| 77.11 ± 5.52 | – | – | – | – | 2.12 | 2.12 | 0.36 | 1.22 | 3.52 | 3.52 | 0.554 | – | – | – | COC(=O)c1ccc(NC(=O)CNC(=O)C2CCCCC2)c(C)c1 [SR-01000246445] | 30.43 ± 4.82 | > 14.1 | – | – | – |
| 96.78 ± 14.90 | – | – | – | – | 1.52 | 1.52 | 0.31 | 0.51 | 2.73 | 2.73 | 0.863 | – | – | – | CC(CCc1ccccc1)NC(=O)Cn1ncc2c1-c1ccccc1OC2 (stereo not shown) [SR-01000134913] | −5.82 ± 11.13 | > 14.1 | – | – | – |
| 123.26 ± 12.43 | 5.68 | 5.68 | 0.93 | 0.44 | – | – | – | – | – | – | – | 0.0115 | 2.61 | 2.61 | COc1ccc(CCNC(=O)c2cnc(N3CCCC3CO)s2)cc1 (stereo not shown) [SR-01000652673] | – | – | 3.95 ± 2.97 | > 13.4 | – |
| 117.44 ± 4.30 | 4.52 | 4.52 | 1.21 | 0.34 | 2.07 | 2.07 | – | – | – | – | – | 0.0493 | – | – | O=C1N2CN(Cc3ccccc3)CN3C(=O)N4CN(Cc5ccccc5)CN1C4C23 (stereo not shown) [SR-01000090996] | −5.40 ± 6.26 | > 14.1 | – | – | – |
| 95.83 ± 14.92 | – | – | – | – | 1.87 | 1.87 | 0.27 | 0.32 | 3.24 | 3.24 | 0.469 | – | – | – | O=C(CN1CC(=O)N(Cc2ccc(O)cc2)C(c2ccccc2Cl)C1=O)NCc1ccco1 (stereo not shown) [SR-01000583711] | 9.29 ± 2.62 | > 11.1 | – | – | – |
| 78.41 ± 20.14 | – | – | – | – | 2.44 | 2.40 | 0.29 | 1.22 | 3.95 | 3.92 | 0.43 | – | – | – | CC(C)Cn1c2c(c(=O)[nH]c1=O)C(NC(=O)CCC1CCCCC1)(C(F)(F)F)C(=O)N2 (stereo not shown) [SR-01000086488] | 1.08 ± 3.12 | > 14.1 | – | – | – |
| 87.23 ± 6.46 | – | – | – | – | 1.92 | 1.87 | 0.25 | 0.94 | 3.27 | 3.22 | 0.629 | – | – | – | Cc1[nH]ncc1-c1ccc(NC(=O)C2COc3ccc(F)cc3C2)c(OCCN2CCOCC2)c1.O=C(O)C(F)(F)F.O=C(O)C(F)(F)F (stereo not shown) [SR-00000005393] | 10.82 ± 8.56 | – | – | – | > 14.1 |
